{
  "source": "patent US7087769B1",
  "about": "“Process for the preparation of cationic surfactants” (Laboratorios Miret, S.A., priority 2000, dated 2006)",
  "origin": "cited, not measured here",
  "key": {"Escherichia coli": {"system": "Escherichia coli", "conditions": "EP-A-0 749 960"}, "Staphylococcus aureus": {"system": "Staphylococcus aureus", "conditions": "EP-A-0 749 960"}, "Pseudomonas aeruginosa": {"system": "Pseudomonas aeruginosa", "conditions": "EP-A-0 749 960"}, "Candida albicans": {"system": "Candida albicans", "conditions": "EP-A-0 749 960"}, "Aspergillus niger": {"system": "Aspergillus niger", "conditions": "EP-A-0 749 960"}, "[1]": {"system": "Bordetella bronchiseptica"}, "[2]": {"system": "Klebsiella pneumoniae spp. pneumoniae"}, "[3]": {"system": "Bacillus cereus spp. mycoide"}, "[4]": {"conditions": "animals"}, "[5]": {"conditions": "human beings"}},
  "note": "Read-outs that look alike come from different tables or passages of the source.",
  "data": [
    {"smiles": "CCCCCCCCCCCC(=O)N[C@@H](CCCNC(=N)N)C(=O)OCC.Cl", "note": "[ethyl ester of N^α-lauroyl-L-arginine monohydrochloride]", "values": [
      {"measurement": "efficacy against microorganism", "setting": "Escherichia coli", "result": "proven"},
      {"measurement": "efficacy against microorganism", "setting": "Staphylococcus aureus", "result": "proven"},
      {"measurement": "efficacy against microorganism", "setting": "Pseudomonas aeruginosa", "result": "proven"},
      {"measurement": "efficacy against microorganism", "setting": "Candida albicans", "result": "proven"},
      {"measurement": "efficacy against microorganism", "setting": "Aspergillus niger", "result": "proven"},
      {"measurement": "efficacy against bacteria", "setting": "Alcaligenes faecalis", "result": "efficaceous"},
      {"measurement": "efficacy against bacteria", "setting": "[1]", "result": "efficaceous"},
      {"measurement": "efficacy against bacteria", "setting": "Citrobacter freundii", "result": "efficaceous"},
      {"measurement": "efficacy against bacteria", "setting": "Enterobacter aerogenes", "result": "efficaceous"},
      {"measurement": "efficacy against bacteria", "setting": "[2]", "result": "efficaceous"},
      {"measurement": "efficacy against bacteria", "setting": "Proteus mirabilis", "result": "efficaceous"},
      {"measurement": "efficacy against bacteria", "setting": "Salmonelly thyphimurium", "result": "efficaceous"},
      {"measurement": "efficacy against bacteria", "setting": "Serratia marcescens", "result": "efficaceous"},
      {"measurement": "efficacy against bacteria", "setting": "Bacillus subtilus", "result": "efficaceous"},
      {"measurement": "efficacy against bacteria", "setting": "[3]", "result": "efficaceous"},
      {"measurement": "efficacy against bacteria", "setting": "Micrococcus luteus", "result": "efficaceous"},
      {"measurement": "efficacy against bacteria", "setting": "Arthrobacter oxydans", "result": "efficaceous"},
      {"measurement": "efficacy against bacteria", "setting": "Mycobacterium phlei", "result": "efficaceous"},
      {"measurement": "efficacy against bacteria", "setting": "Listeria monocytogenes", "result": "efficaceous"},
      {"measurement": "efficacy against yeasts", "setting": "Rhodotorula rubra", "result": "efficaceous"},
      {"measurement": "efficacy against yeasts", "setting": "Saccharomyces cerevisiae", "result": "efficaceous"},
      {"measurement": "efficacy against yeasts", "setting": "Zygosaccharomyces rouxii", "result": "efficaceous"},
      {"measurement": "efficacy against fungi", "setting": "Mucor rouxii", "result": "efficaceous"},
      {"measurement": "efficacy against fungi", "setting": "Aureobasidium pullulans", "result": "efficaceous"},
      {"measurement": "efficacy against fungi", "setting": "Chaetonium globosum", "result": "efficaceous"},
      {"measurement": "efficacy against fungi", "setting": "Gliocadium virens", "result": "efficaceous"},
      {"measurement": "efficacy against fungi", "setting": "Penicillium chrysogenum", "result": "efficaceous"},
      {"measurement": "efficacy against fungi", "setting": "Penicillium funiculosum", "result": "efficaceous"},
      {"measurement": "tolerability", "setting": "[4]", "result": "well tolerated"},
      {"measurement": "tolerability", "setting": "[5]", "result": "well tolerated"}
    ]}
  ]
}
